These are literature values, as cited in US9198881B2, “Equine nutritional supplement” (priority 2011, dated 2015).

Read-outs that look alike come from different tables or passages of the source.

For this data set, the system named is nitric oxide. Particulars: humans, 8 weeks of supervised aerobic training, FIGS. 4 and 5.

With “Glycine Propionyl L-Carnitine Hydrochloride”, the nitric oxide levels entry is “statistically significant enhancement” (1.5 grams per day) and “statistically significant enhancement” (4.5 grams per day).
